One test deals with human DNA-PK (Homo sapiens, UniProt P78527). Kind of test: Inhibition of DNA-PKcs kinase activity, HotSpot assay (Reaction Biology), [γ-33P]-ATP phosphorylation of peptide substrate. The class given is biochemical. The conditions noted are these: 10 μM ATP, 10 μg/ml DNA; mean of two replicates; Table 12; read-out: Inhibition of kinase activity (as IC50) DNA-PK (converted).
A further test deals with human PI3Kα (p110α/p85α) (Homo sapiens, UniProt P42336). Kind of test: Inhibition of PI3Kα kinase activity, ADP-Glo Assay (Reaction Biology). The conditions noted are these: 10 μM ATP; mean of two replicates; Table 12; read-out: Inhibition of kinase activity (as IC50) PICK. The class given is biochemical. (ADP-Glo turns the ADP formed in a reaction into a luminescent signal.)
human PI3Kα (p110α/p85α), sequence (P42336 whole entry): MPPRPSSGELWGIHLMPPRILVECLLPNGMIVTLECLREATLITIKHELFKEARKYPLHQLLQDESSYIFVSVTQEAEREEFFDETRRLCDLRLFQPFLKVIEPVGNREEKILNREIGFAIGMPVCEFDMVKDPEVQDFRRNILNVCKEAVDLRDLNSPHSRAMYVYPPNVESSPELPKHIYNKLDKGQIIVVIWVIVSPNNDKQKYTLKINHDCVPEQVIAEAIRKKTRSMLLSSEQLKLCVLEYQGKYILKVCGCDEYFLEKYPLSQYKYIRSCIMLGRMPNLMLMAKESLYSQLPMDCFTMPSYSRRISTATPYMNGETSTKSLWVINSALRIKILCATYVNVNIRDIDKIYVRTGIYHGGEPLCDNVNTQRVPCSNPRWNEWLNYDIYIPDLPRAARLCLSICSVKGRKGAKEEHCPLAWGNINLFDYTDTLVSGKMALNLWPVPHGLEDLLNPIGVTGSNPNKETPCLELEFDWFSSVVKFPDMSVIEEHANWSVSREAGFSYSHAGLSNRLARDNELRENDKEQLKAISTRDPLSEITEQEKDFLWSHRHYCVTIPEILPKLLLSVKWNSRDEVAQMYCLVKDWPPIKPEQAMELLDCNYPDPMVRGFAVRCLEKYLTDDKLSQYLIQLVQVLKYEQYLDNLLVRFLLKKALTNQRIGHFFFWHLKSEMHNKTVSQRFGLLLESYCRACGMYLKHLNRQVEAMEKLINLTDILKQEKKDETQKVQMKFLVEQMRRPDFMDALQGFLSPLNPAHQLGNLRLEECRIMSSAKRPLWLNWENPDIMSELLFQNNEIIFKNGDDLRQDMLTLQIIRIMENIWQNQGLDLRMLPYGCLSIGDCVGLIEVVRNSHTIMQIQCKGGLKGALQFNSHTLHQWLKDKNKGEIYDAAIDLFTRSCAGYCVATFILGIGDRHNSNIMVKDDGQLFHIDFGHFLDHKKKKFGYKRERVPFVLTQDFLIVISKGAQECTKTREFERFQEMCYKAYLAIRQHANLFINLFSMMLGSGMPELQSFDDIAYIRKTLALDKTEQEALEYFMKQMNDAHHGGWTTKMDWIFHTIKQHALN
human PI3Kα (p110α/p85α), sequence (P27986 whole entry partner): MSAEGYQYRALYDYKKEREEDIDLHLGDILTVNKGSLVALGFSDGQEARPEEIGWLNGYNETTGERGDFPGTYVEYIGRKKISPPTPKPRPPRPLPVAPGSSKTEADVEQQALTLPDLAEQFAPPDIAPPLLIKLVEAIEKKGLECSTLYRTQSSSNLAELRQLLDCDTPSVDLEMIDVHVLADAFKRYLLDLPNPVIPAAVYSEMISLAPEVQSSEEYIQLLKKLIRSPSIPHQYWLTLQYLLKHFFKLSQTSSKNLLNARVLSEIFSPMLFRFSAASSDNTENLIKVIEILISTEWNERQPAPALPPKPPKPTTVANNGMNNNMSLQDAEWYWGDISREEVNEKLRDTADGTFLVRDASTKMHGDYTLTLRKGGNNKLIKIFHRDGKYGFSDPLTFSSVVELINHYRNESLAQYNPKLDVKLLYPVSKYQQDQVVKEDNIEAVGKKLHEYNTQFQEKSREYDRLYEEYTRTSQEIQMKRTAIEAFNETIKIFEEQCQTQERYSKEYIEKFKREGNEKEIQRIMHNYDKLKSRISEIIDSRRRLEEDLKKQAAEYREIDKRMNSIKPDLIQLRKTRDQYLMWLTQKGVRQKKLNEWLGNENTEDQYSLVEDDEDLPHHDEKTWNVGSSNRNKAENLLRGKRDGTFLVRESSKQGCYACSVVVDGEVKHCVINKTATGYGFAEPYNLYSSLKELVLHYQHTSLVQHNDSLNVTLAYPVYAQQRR

The subject of the next test is UT-SCC-54C cells. Kind of test: Radiosensitisation of UT-SCC-54C HNSCC cells, regrowth (sulforhodamine B) assay, oxic (Table 16). In kind it is cell-based, human. The conditions noted are these: for IC50: Homo sapiens, read-out: IC50; for S50: compound in combination with 3 Gy of radiation, 50% inhibition of regrowth fraction, UT-SCC-54C; for S50 / radiosensitisation / differential growth inhibition of UT-SCC-54C cells: oxic; for radiosensitisation / differential growth inhibition of UT-SCC-54C cells: 0 or 3 Gy, regrowth assay.

The target in another test is human mTOR (Homo sapiens, UniProt P42345). Kind of test: Inhibition of mTOR kinase activity, HotSpot assay, phosphorylation of 4EPB1. The conditions noted are these: Inhibition of kinase activity (as IC50) mTOR (nM), 10 μM ATP; mean of two replicates; Table 12.

Each structure is given as a SMILES string. Several values for one entry are separate records, joined by “and”; a condition that tells them apart may be missing. Identical values can stand only once.

A word on the IC50: it is the midpoint of a concentration-inhibition curve. `COc1cc(C)c(Nc2cc3c(cn2)n(C)c(=O)n3C2CCOCC2)cc1OC` [Compound 216, 6-((4,5-Dimethoxy-2-methylphenyl)amino)-3-methyl-1-(tetrahydro-2H-pyran-4-yl)-1,3-dihydro-2H-imidazo[4,5-c]pyridin-2-one]: the IC50 on human DNA-PK was 390 nM; at human PI3Kα (p110α/p85α), 4.62 µM; in the test on UT-SCC-54C cells, greater than 10 µM; at human mTOR, 42700 nM. For the same compound, the “S50” value with UT-SCC-54C cells came out at 7.4 µM.

Regarding `Cc1cc(Cl)ccc1Nc1cc2c(cn1)n(C)c(=O)n2CCC1CCOCC1` [Compound 147, 6-((4-Chloro-2-methylphenyl)amino)-3-methyl-1-(2-(tetrahydro-2H-pyran-4-yl)ethyl)-1,3-dihydro-2H-imidazo[4,5-c]pyridin-2-one], the IC50 on human DNA-PK was 11 nM; on human PI3Kα (p110α/p85α) it was 0.49 µM; in the test with UT-SCC-54C cells, greater than 10 µM; against human mTOR it was 7900 nM. For the same compound, in the test on UT-SCC-54C cells, the “S50” value turned out to be 0.97 µM.

On to `Cc1nc2ccc(Nc3cc4c(cn3)n(C)c(=O)n4C3CCOCC3)cc2o1` [Compound 128, 3-Methyl-6-((2-methylbenzo[d]oxazol-6-yl)amino)-1-(tetrahydro-2H-pyran-4-yl)-1,3-dihydro-2H-imidazo[4,5-c]pyridin-2-one], for which the IC50 was 1420 nM at human DNA-PK, greater than 10 µM at human PI3Kα (p110α/p85α) and greater than 100000 nM on human mTOR.

For the compound `Cc1cc(Cl)cnc1Nc1cc2c(cn1)n(C)c(=O)n2C1CCOCC1` [Compound 217, 6-((5-Chloro-3-methylpyridin-2-yl)amino)-3-methyl-1-(tetrahydro-2H-pyran-4-yl)-1,3-dihydro-2H-imidazo[4,5-c]pyridin-2-one], the IC50 is 52 nM on human DNA-PK, 33.1 µM on human PI3Kα (p110α/p85α), greater than 10 µM in the test on UT-SCC-54C cells and 76300 nM against human mTOR. For the same compound, the “S50” value with UT-SCC-54C cells stood at 3.9 µM.

For `COc1cnc(Nc2cc3c(cn2)n(C)c(=O)n3C2CCOCC2)c(C)c1` [Compound 220, 6-((5-Methoxy-3-methylpyridin-2-yl)amino)-3-methyl-1-(tetrahydro-2H-pyran-4-yl)-1,3-dihydro-2H-imidazo[4,5-c]pyridin-2-one], the IC50 at human DNA-PK is 170 nM; on human PI3Kα (p110α/p85α), 24 µM; with UT-SCC-54C cells, greater than 10 µM; on human mTOR, greater than 100000 nM. Also, the “S50” value in the test with UT-SCC-54C cells worked out at 4.4 µM.

Consider `COc1ccc(Nc2cc3c(cn2)n(C)c(=O)n3C2CCN(C(=O)OCc3cnc([N+](=O)[O-])n3C)CC2)c(C)c1` [Compound 252, (1-Methyl-2-nitro-1H-imidazol-5-yl)methyl 4-(6-((4-methoxy-2-methylphenyl)amino)-3-methyl-2-oxo-2,3-dihydro-1H-imidazo[4,5-c]pyridin-1-yl)piperidine-1-carboxylate], for which the half-inhibitory concentration (IC50) at human DNA-PK is 104 nM; on human PI3Kα (p110α/p85α), 0.74 µM; on human mTOR it was 15600 nM.

Turning to `COc1ccc(-c2ccc(Nc3cc4c(cn3)n(C)c(=O)n4C3CCOCC3)cc2)cn1` [Compound 223, 6-((4-(6-Methoxypyridin-3-yl)phenyl)amino)-3-methyl-1-(tetrahydro-2H-pyran-4-yl)-1,3-dihydro-2H-imidazo[4,5-c]pyridin-2-one], the results for the IC50 at human DNA-PK, on human PI3Kα (p110α/p85α) and against human mTOR were 3940 nM, 11.8 µM and 41200 nM, respectively.

Turning to `COc1ccc(Nc2cc3c(cn2)n(C)c(=O)n3C2CCC(NC(=O)OCc3cnc([N+](=O)[O-])n3C)CC2)c(C)c1` (stereo not drawn) [Compound 253, (1-Methyl-2-nitro-1H-imidazol-5-yl)methyl (4-(6-((4-methoxy-2-methylphenyl)amino)-3-methyl-2-oxo-2,3-dihydro-1H-imidazo[4,5-c]pyridin-1-yl)cyclohexyl)carbamate], the figures for the IC50 on human DNA-PK, at human PI3Kα (p110α/p85α) and at human mTOR were 58 nM, 0.296 µM and 11400 nM, respectively.

As to `COc1ccc(-n2c(=O)n(C)c3cnc(Nc4ccc(O)cc4C)cc32)cc1` [Compound 200, 6-((4-Hydroxy-2-methylphenyl)amino)-1-(4-methoxyphenyl)-3-methyl-1,3-dihydro-2H-imidazo[4,5-c]pyridin-2-one], the concentration for half-maximal inhibition (IC50) on human DNA-PK was less than 0.05 nM; at human PI3Kα (p110α/p85α) it was 0.264 µM; with UT-SCC-54C cells, greater than 10 µM; against human mTOR, 19500 nM. For the same compound, the “S50” value in the test with UT-SCC-54C cells worked out at 0.31 µM.

In the case of `Cc1cc2ncc(C(=O)O)n2cc1Nc1cc2c(cn1)n(C)c(=O)n2C1CCOCC1` [Compound 136, 7-Methyl-6-((3-methyl-2-oxo-1-(tetrahydro-2H-pyran-4-yl)-2,3-dihydro-1H-imidazo[4,5-c]pyridin-6-yl)amino)imidazo[1,2-a]pyridine-3-carboxylic acid], the concentration for half-maximal inhibition (IC50) was 3.6 nM on human DNA-PK, 0.151 µM at human PI3Kα (p110α/p85α) and 19600 nM against human mTOR.

As for `Cc1nc2cc(Nc3cc4c(cn3)n(C)c(=O)n4C3CCOCC3)c(C)cc2o1` [Compound 131, 6-((2,6-Dimethylbenzo[d]oxazol-5-yl)amino)-3-methyl-1-(tetrahydro-2H-pyran-4-yl)-1,3-dihydro-2H-imidazo[4,5-c]pyridin-2-one], the IC50 at human DNA-PK is 47.7 nM; on human PI3Kα (p110α/p85α), 11 µM; in the test on UT-SCC-54C cells it was greater than 10 µM; against human mTOR it was 13400 nM. In the test with UT-SCC-54C cells, the “S50” value came to 4.8 µM.

Take `COC1CCC(n2c(=O)n(C)c3cnc(Nc4ccc(Cl)cc4C)cc32)CC1` (stereo not drawn) [Compound 173, 6-((4-Chloro-2-methylphenyl)amino)-1-(4-methoxycyclohexyl)-3-methyl-1,3-dihydro-2H-imidazo[4,5-c]pyridin-2-one]: the concentration for half-maximal inhibition (IC50) at human DNA-PK was 0.64 nM; at human PI3Kα (p110α/p85α), 2.17 µM; in the test on UT-SCC-54C cells, greater than 10 µM; against human mTOR, 27500 nM. In the test on UT-SCC-54C cells, the “S50” value is 0.85 µM.

Consider `COc1ccc(-n2c(=O)n(C)c3cnc(Nc4cc(S(C)(=O)=O)ccc4C)cc32)cc1` [Compound 197, 1-(4-Methoxyphenyl)-3-methyl-6-((2-methyl-5-(methylsulfonyl)phenyl)amino)-1,3-dihydro-2H-imidazo[4,5-c]pyridin-2-one], for which the IC50 was 0.09 nM at human DNA-PK, 0.033 µM at human PI3Kα (p110α/p85α) and 33400 nM at human mTOR.

For `Cc1cc(Cl)ccc1Nc1cc2c(cn1)n(C)c(=O)n2C1CCOCC1` [Compound 122, 6-((4-Chloro-2-methylphenyl)amino)-3-methyl-1-(tetrahydro-2H-pyran-4-yl)-1,3-dihydro-2H-imidazo[4,5-c]pyridin-2-one], the half-inhibitory concentration (IC50) on human PI3Kα (p110α/p85α) is 2.53 µM and 5.53 µM; in the test with UT-SCC-54C cells, greater than 10 µM; against human mTOR, 46600 nM and 56100 nM. Also, the “S50” value in the test with UT-SCC-54C cells stood at 0.38 µM.

In the case of `COc1ccc(N(C(=O)OCc2cnc([N+](=O)[O-])n2C)c2cc3c(cn2)n(C)c(=O)n3C2CCC(OC)CC2)c(C)c1` (stereo not drawn) [Compound 258, (1-Methyl-2-nitro-1H-imidazol-5-yl)methyl (4-methoxy-2-methylphenyl)(1-(4-methoxycyclohexyl)-3-methyl-2-oxo-2,3-dihydro-1H-imidazo[4,5-c]pyridin-6-yl)carbamate], the IC50 at human DNA-PK is 754 nM; on human PI3Kα (p110α/p85α), 39.2 µM; in the test on UT-SCC-54C cells, greater than 10 µM; on human mTOR it was greater than 100000 nM. The “S50” value with UT-SCC-54C cells is greater than 10 µM. Also, in the test with UT-SCC-54C cells, the “radiosensitisation / differential growth inhibition of UT-SCC-54C cells” value is reported as “did not display any differential growth inhibition”.

Regarding `COc1ccc(-n2c(=O)n(C)c3cnc(Nc4ccc(S(C)(=O)=O)cc4C)cc32)cc1` [Compound 198, 1-(4-Methoxyphenyl)-3-methyl-6-((2-methyl-4-(methylsulfonyl)phenyl)amino)-1,3-dihydro-2H-imidazo[4,5-c]pyridin-2-one], the IC50 is 23 nM on human DNA-PK, 1.8 µM on human PI3Kα (p110α/p85α) and greater than 10 µM in the test on UT-SCC-54C cells. The “S50” value with UT-SCC-54C cells stood at 0.17 µM.

Consider `COc1ccc(-n2c(=O)n(C)c3cnc(Nc4ccc(OCc5cnc([N+](=O)[O-])n5C)cc4C)cc32)cc1` [Compound 246, 1-(4-Methoxyphenyl)-3-methyl-6-((2-methyl-4-((1-methyl-2-nitro-1H-imidazol-5-yl)methoxy)phenyl)amino)-1,3-dihydro-2H-imidazo[4,5-c]pyridin-2-one], for which the IC50 is 116 nM on human DNA-PK, 1.28 µM at human PI3Kα (p110α/p85α) and greater than 10 µM in the test with UT-SCC-54C cells. Also, the “S50” value in the test with UT-SCC-54C cells was 6.08 µM. The “radiosensitisation / differential growth inhibition of UT-SCC-54C cells” value in the test on UT-SCC-54C cells is “did not display any differential growth inhibition”.

As to `Cc1nc(Cl)ccc1Nc1cc2c(cn1)n(C)c(=O)n2C1CCOCC1` [Compound 219, 6-((6-Chloro-2-methylpyridin-3-yl)amino)-3-methyl-1-(tetrahydro-2H-pyran-4-yl)-1,3-dihydro-2H-imidazo[4,5-c]pyridin-2-one], the concentration for half-maximal inhibition (IC50) at human DNA-PK is 270 nM; on human PI3Kα (p110α/p85α) it was 20.8 µM; on human mTOR it was greater than 100000 nM.

As to `COCCn1c(=O)n(C)c2cnc(Nc3ccc(Cl)cc3C)cc21` [Compound 105, 6-((4-Chloro-2-methylphenyl)amino)-1-(2-methoxyethyl)-3-methyl-1,3-dihydro-2H-imidazo[4,5-c]pyridin-2-one], the 50% inhibitory concentration (IC50) on human DNA-PK was 12.1 nM; at human PI3Kα (p110α/p85α), 3.26 µM; against human mTOR, 71400 nM.

As to `COc1ccc(Nc2cc3c(cn2)n(C)c(=O)n3C2CCOCC2)c(C)n1` [Compound 221, 6-((6-Methoxy-2-methylpyridin-3-yl)amino)-3-methyl-1-(tetrahydro-2H-pyran-4-yl)-1,3-dihydro-2H-imidazo[4,5-c]pyridin-2-one], the IC50 on human DNA-PK was 441 nM; on human PI3Kα (p110α/p85α), 9.36 µM; on human mTOR, greater than 100000 nM.

For the origin of these results see US20230365559A1, “NOVEL AMINOPYRIDINES AND THEIR USE IN TREATING CANCER” (priority 2020, published 2023).
